The record followed here is ChEMBL document CHEMBL3507680, “University of Dundee, Gates Library screen for HepG2 cell viability”.

The structures appear in SMILES notation.

This data set in a line: Human HepG2 cell viability assay in 384 well format. It counts as toxicity, cell-based. Also on record: dose 125 nL, time 70.5 hour; concentration not given beside the values. The note with it: HepG2 cells, read-out: Inhibition.
As for `Cc1ccn(CCNC(=O)C2(C)CC(c3ccccc3)=NO2)n1` (stereo unspecified), the cytotoxicity at 70.5 h is -1.48%.

Regarding `CCc1nc(N2CCOCC2)ncc1C(=O)NC(c1cccs1)C(C)C` (stereo unspecified), the cytotoxicity at 70.5 h is -0.678%.

As to `Cc1nccn1CCNC(=O)C1(C)CC(c2ccccc2)=NO1` (stereo unspecified), the cytotoxicity at 70.5 h was -3.18%.

With `Cc1cccc(C2(O)CCN(Cc3ccccc3N3CCCC3)CC2)c1`, the cytotoxicity at 70.5 h was found to be 16.9%.

With `Cc1cc(NCCNS(=O)(=O)c2cn(C)nc2C)c2ccccc2n1`, the cytotoxicity at 70.5 h came to 13.5%.

Regarding `Oc1cc(-c2ccccn2)nc(C2CCN(Cc3ccncc3)CC2)n1`, the cytotoxicity at 70.5 h was determined as 16.5%.

Turning to `CC(=O)N1C[C@H]2CCCN(S(=O)(=O)c3ccc(Cl)s3)[C@H]2C1`, the cytotoxicity at 70.5 h was found to be 44.3%.

For the compound `CC(C)c1[nH]c2ncccc2c1CN1CCN(S(=O)(=O)N(C)C)CC1`, the cytotoxicity at 70.5 h is -7.69%.

With `COCCCNS(=O)(=O)c1ccc2c(c1)NC(=O)C(C)O2` (stereo unspecified), the cytotoxicity at 70.5 h was determined as 1.94%.

`CCN(CC)CCCNCc1cc2cccc(C)c2[nH]c1=O`: the cytotoxicity at 70.5 h is -4.69%.

Consider `CC(C)c1ccc(CN[C@@H]2COC[C@H]2c2ccc(F)cc2)cc1`, for which the cytotoxicity at 70.5 h is -5.3%.

On to `CNc1nccnc1C1CN(C(=O)c2cc[nH]n2)CCO1` (stereo unspecified), for which the cytotoxicity at 70.5 h is -4.96%.

With `Cn1nc(C2CNCCO2)cc1CCOc1cccc(C(F)(F)F)c1` (stereo unspecified), the cytotoxicity at 70.5 h is 7.31%.

For the compound `CCCc1cc(C(=O)N[C@@H]2CC[C@@H](N3CCOCC3)[C@@H]2O)no1`, the cytotoxicity at 70.5 h was -5.49%.

For the compound `CCc1cc(C(=O)N[C@@H]2CC[C@@H](N3CCOCC3)[C@@H]2O)no1`, the cytotoxicity at 70.5 h is -4.39%.

For the compound `Cc1n[nH]c(C)c1CCC(=O)NCC1(O)CCN(c2ccccn2)C1` (stereo unspecified), the cytotoxicity at 70.5 h was -1.98%.

Take `Cn1nc(C2CNCCO2)cc1CCOc1ccc(C(F)(F)F)cc1` (stereo unspecified): the cytotoxicity at 70.5 h was -1.52%.

With `Cc1cnc(CC2COCCN(C(=O)CN3CCCCC3)C2)cn1` (stereo unspecified), the cytotoxicity at 70.5 h is -2.32%.

Regarding `Cn1ccnc1CN1CCOC(Cc2ccccc2)C1` (stereo unspecified), the cytotoxicity at 70.5 h is -3.39%.

For the compound `CC(=O)N1CCC(c2cncc(N3CCOCC3)n2)CC1`, the cytotoxicity at 70.5 h was -8.68%.

On to `c1cncc(CN2CC(Cc3nccc4cc[nH]c34)C2)c1`, for which the cytotoxicity at 70.5 h is -3.48%.

`CC(=O)N1CCC(c2cncc(Cl)n2)CC1`: the cytotoxicity at 70.5 h was 2.82%.

Consider `Cc1ncncc1C(=O)N1CCOC(C(=O)NC2CCCC2)C1` (stereo unspecified), for which the cytotoxicity at 70.5 h was -1.76%.

On to `Oc1cc(-c2ccsc2)nc(C2CCN(Cc3cccnc3)CC2)n1`, for which the cytotoxicity at 70.5 h is -5.93%.

As for `Cc1cc(C2CCN(S(=O)(=O)N(C)C)CC2)ccn1`, the cytotoxicity at 70.5 h came to 12.7%.

For `COc1ccc(C2CNCCN2C(=O)c2cccc3cccnc23)cc1` (stereo unspecified), the cytotoxicity at 70.5 h worked out at 12.4%.

For the compound `COc1ccc(C2CNCCN2C(=O)c2nccc3ccccc23)cc1` (stereo unspecified), the cytotoxicity at 70.5 h is 5.97%.

Turning to `COc1ccc(C2CNCCN2C(=O)c2cccc3ncccc23)cc1` (stereo unspecified), the cytotoxicity at 70.5 h is -3.21%.

Turning to `CNc1ncc(C(=O)N2CCOC(C(=O)N3CCCCCC3)C2)cn1` (stereo unspecified), the cytotoxicity at 70.5 h is -2.75%.

For the compound `COCCC(=O)N1C[C@@H](c2ccc(F)c(F)c2)[C@@]2(CCCC(=O)N2)C1`, the cytotoxicity at 70.5 h was -1.65%.

Regarding `CNc1nc(C2CCCN(C(=O)C3CCCCC3)C2)nc2c1CNCC2` (stereo unspecified), the cytotoxicity at 70.5 h was -3.63%.

As for `CNc1nccnc1C1CN(C(=O)c2c[nH]cn2)CCO1` (stereo unspecified), the cytotoxicity at 70.5 h worked out at 3.73%.

Turning to `c1ccc2ncc(CC3CNCCOC3)cc2c1` (stereo unspecified), the cytotoxicity at 70.5 h was -0.7%.

On to `CN1CCCC(c2cccc(-c3cccc(C(F)(F)F)c3)n2)C1` (stereo unspecified), for which the cytotoxicity at 70.5 h is -2.8%.

Regarding `CC(=O)N1CCCC1c1nc(C)c2c(n1)N(Cc1ccccn1)CCC2` (stereo unspecified), the cytotoxicity at 70.5 h was -8.03%.

For the compound `CNC(=O)C1CN(Cc2cc(C)on2)CCN(C(C)=O)C1` (stereo unspecified), the cytotoxicity at 70.5 h was -9.11%.

On to `CN1CCCC1c1cncc(C(=O)NCCN2CCCCC2)n1` (stereo unspecified), for which the cytotoxicity at 70.5 h is -8.33%.

`CC(C)c1nnc(CCC(=O)N2CCCC(c3cnccn3)C2)o1` (stereo unspecified): the cytotoxicity at 70.5 h is -9.44%.

On to `CNC(=O)c1cnc(C)nc1CCNC(=O)CCc1ccccc1`, for which the cytotoxicity at 70.5 h turned out to be 7.59%.

As for `NC(=O)c1cnc(NC2CC2)nc1CCNC(=O)Cc1ccccc1`, the cytotoxicity at 70.5 h is -5.85%.

As to `COc1ccc(F)cc1C(=O)N(C)[C@@H]1CC[C@@H](O)[C@@H]1O`, the cytotoxicity at 70.5 h was -9.84%.

Regarding `COCc1ccc(OC)c(CNC2CCCNC2=O)c1` (stereo unspecified), the cytotoxicity at 70.5 h was -8.49%.

As to `CC(=O)N1CCC(Cc2cnc(Nc3cc(C)on3)cn2)CC1`, the cytotoxicity at 70.5 h was -4.74%.

`Cc1ncsc1C(=O)N1CCC(c2ncncc2-c2ccnc(N)c2)C1` (stereo unspecified): the cytotoxicity at 70.5 h is -7%.

For the compound `COc1ccccc1NC(=O)C1(c2ccccc2)CCOCC1`, the cytotoxicity at 70.5 h was -6.73%.

As to `CCNC(=O)c1cccc(CNC(=O)c2cnc(C(C)(C)C)s2)c1`, the cytotoxicity at 70.5 h amounted to 2.86%.

Take `Cc1ccc(O)c(CNc2cccc(OCCF)c2)n1`: the cytotoxicity at 70.5 h was -5.5%.

As to `NC(=O)N1CCC(NCc2cc(Br)ccc2Cl)CC1`, the cytotoxicity at 70.5 h is -1.95%.

As for `Cc1ccc(OCC(=O)Nc2cc(C(=O)O)cc(S(C)(=O)=O)c2)cc1C`, the cytotoxicity at 70.5 h was 0.676%.

As for `NC(=O)CN1CCC(NCc2cc(C(F)(F)F)ccc2Cl)CC1`, the cytotoxicity at 70.5 h was -4.69%.

With `Cc1cc(N2CCCC(c3nncn3C3CC3)C2)ncn1` (stereo unspecified), the cytotoxicity at 70.5 h was -2.44%.

Take `Cc1ccc(CN(CCN(C)C)C(=O)Cc2cn3ccccc3n2)o1`: the cytotoxicity at 70.5 h was -3.69%.

Regarding `CN(Cc1cnn(C)c1)CC(O)c1ccc2c(c1)OCO2` (stereo unspecified), the cytotoxicity at 70.5 h is -2.83%.

For `CCC(=O)N1CCC(NCc2cc(C(F)(F)F)ccc2Cl)C1` (stereo unspecified), the cytotoxicity at 70.5 h was -4.4%.

Regarding `COc1cccc(C(C)N2CCN(S(=O)(=O)CCCF)CC2)c1` (stereo unspecified), the cytotoxicity at 70.5 h amounted to 34.9%.

Take `O=C(Nc1nncs1)c1ccc(O)nc1`: the cytotoxicity at 70.5 h was 0.228%.

As for `O=C(CN(Cc1cccs1)C1CCS(=O)(=O)C1)NCC1CCCCC1` (stereo unspecified), the cytotoxicity at 70.5 h was -1.81%.

For `COc1c(F)cc(NCC(=O)NC(C)(C#N)C2CC2)cc1F` (stereo unspecified), the cytotoxicity at 70.5 h is -0.61%.

Consider `CC(c1cccc(Cl)c1)N1CCN(S(C)(=O)=O)CC1` (stereo unspecified), for which the cytotoxicity at 70.5 h was -1.61%.

On to `Cn1cc(CNC(=O)Nc2ccc(S(=O)(=O)C(F)F)cc2)cn1`, for which the cytotoxicity at 70.5 h came to 0.531%.

Consider `O=C1NCCCCC1SCc1coc(-c2ccccc2)n1` (stereo unspecified), for which the cytotoxicity at 70.5 h is -2.46%.

On to `CC(C#N)CNC(=O)Nc1ccc(Br)cc1` (stereo unspecified), for which the cytotoxicity at 70.5 h is 2.54%.

As to `CC(=O)NC(Cc1c[nH]c2cc(F)ccc12)C(=O)Nc1nncs1` (stereo unspecified), the cytotoxicity at 70.5 h was -2.58%.

`CC(=O)NC(Cc1c[nH]c2cc(F)ccc12)C(=O)Nc1cnn(C)c1` (stereo unspecified): the cytotoxicity at 70.5 h came to 1.79%.

With `CCS(=O)(=O)CC(=O)Nc1ccc2oc(C3CC3)nc2c1`, the cytotoxicity at 70.5 h is -0.903%.

As to `Cc1nc(C2CCN(S(=O)(=O)c3ccc(Cl)cc3)CC2)n[nH]1`, the cytotoxicity at 70.5 h amounted to 1.07%.

For the compound `Cc1nc(C2CCN(S(=O)(=O)c3ccc4c(c3)CCO4)CC2)n[nH]1`, the cytotoxicity at 70.5 h came out at 0.662%.

For the compound `CN(C)Cc1ccnc(NS(=O)(=O)CCc2ccccc2)c1`, the cytotoxicity at 70.5 h was 3.89%.

For the compound `O=C(Cc1cccc(F)c1F)N1CCOC(c2cccc(O)c2)C1` (stereo unspecified), the cytotoxicity at 70.5 h is -2.65%.

Regarding `O=C(c1ccco1)N(c1ccc(F)cn1)C1CCOCC1`, the cytotoxicity at 70.5 h was determined as 26.4%.

With `CC(NS(C)(=O)=O)C(=O)Nc1ccc2oc(C3CC3)nc2c1` (stereo unspecified), the cytotoxicity at 70.5 h was -3.24%.

With `CS(=O)(=O)c1ccc(NCc2ccc(F)cc2)cn1`, the cytotoxicity at 70.5 h is -6.37%.

As to `O=C1NCCCCC1SCc1coc(-c2ccc(F)cc2)n1` (stereo unspecified), the cytotoxicity at 70.5 h was determined as 20.1%.

Take `O=C(c1ccncc1)N1CCCN(Cc2nnc(C3CC3)o2)CC1`: the cytotoxicity at 70.5 h was -2.96%.

Consider `CCOC(C)c1nc(COc2nc(C)no2)cs1` (stereo unspecified), for which the cytotoxicity at 70.5 h was -3.02%.

Consider `COc1cccc(C(C)N2CCN(S(=O)(=O)c3ccccc3)CC2)c1` (stereo unspecified), for which the cytotoxicity at 70.5 h is -2.4%.

`O=C(C1CCCS1)N1CCOc2cccc(F)c21` (stereo unspecified): the cytotoxicity at 70.5 h is -3.7%.

For the compound `O=C(C1CCC1)N1CCOc2cccc(F)c21`, the cytotoxicity at 70.5 h is -9.1%.

In the case of `CCC1CCCN(S(=O)(=O)c2cnn(C)c2)C1` (stereo unspecified), the cytotoxicity at 70.5 h was -0.41%.

Consider `COc1cccc(C(=O)Nc2ccc(OCCC(N)=O)cc2)c1OC`, for which the cytotoxicity at 70.5 h is -5.04%.

In the case of `CCOC(=O)NCC(=O)Nc1nc2ccccc2n1C(C)(C)C`, the cytotoxicity at 70.5 h is 5.06%.

`Cc1ccc(C(=O)NCCS(=O)(=O)Cc2ccccc2)c(=O)[nH]1`: the cytotoxicity at 70.5 h is -9.89%.

On to `COc1ccccc1C1(CNc2cn[nH]c(=O)c2Cl)CC1`, for which the cytotoxicity at 70.5 h was -12.7%.

`COc1ccc(C)cc1C1(CNc2cncc(Cl)n2)CCOCC1`: the cytotoxicity at 70.5 h is -8.23%.

Regarding `COc1ccc(F)cc1Cn1nc(C(N)=O)ccc1=O`, the cytotoxicity at 70.5 h stood at 6.09%.

In the case of `Cc1nc(C)n(CC2CCCN(c3ccnc(-c4ccccc4)n3)C2)n1` (stereo unspecified), the cytotoxicity at 70.5 h is -10.2%.

Regarding `CCn1nnnc1-c1cccc(NC(=O)COC2CCCC2)c1`, the cytotoxicity at 70.5 h worked out at 6.8%.

Take `CCn1nnnc1-c1cccc(NC(=O)CCc2cnn(C)c2)c1`: the cytotoxicity at 70.5 h was -2.12%.

As for `NS(=O)(=O)CCNC(=O)CCc1cc(Br)cs1`, the cytotoxicity at 70.5 h came to 1.86%.

As for `Cc1cc(C)nc(NC2CCc3nc(C)nn3C2)n1` (stereo unspecified), the cytotoxicity at 70.5 h was -5.94%.

`Cc1cc(N(C)C)nc(NC2CCc3nc(C)nn3C2)n1` (stereo unspecified): the cytotoxicity at 70.5 h is 6.17%.

Take `Cc1ccc(C)c(C(O)Cn2cc(Cl)c(=O)[nH]c2=O)c1` (stereo unspecified): the cytotoxicity at 70.5 h came to 13.1%.

On to `CC1CCCN(Cc2c(C3CC3)n(CC(=O)N(C)C)c3ncccc23)C1` (stereo unspecified), for which the cytotoxicity at 70.5 h was 27.3%.

Consider `Cc1cnc(CCNc2cccc(CC3CCCNC3)n2)s1` (stereo unspecified), for which the cytotoxicity at 70.5 h was 0.312%.

`CCN(CC)C(=O)CN1CCc2nc(C3CCNCC3)nc(NC)c2C1`: the cytotoxicity at 70.5 h was -4.13%.

Turning to `Cc1nc(C2CCCNC2)nc2c1CCCN2Cc1ccccn1` (stereo unspecified), the cytotoxicity at 70.5 h was -3.47%.

As for `CCCSc1ncc(CN(C)CCN2CCCCC2)cn1`, the cytotoxicity at 70.5 h is -2.41%.

Take `Cn1cncc1CN1CCC(O)(Cn2nc(-c3cccs3)oc2=O)CC1`: the cytotoxicity at 70.5 h is -2.36%.

For `Cc1ccc(CN[C@@H]2COC[C@H]2c2ccc(F)cc2)cc1C`, the cytotoxicity at 70.5 h came out at 3.52%.

On to `CCOc1ccc(CN[C@@H]2COC[C@H]2c2ccc(F)cc2)cc1`, for which the cytotoxicity at 70.5 h is 29.1%.

As for `OCCN(Cc1ccncc1)CC1(c2ccc(Cl)cc2)CCCC1`, the cytotoxicity at 70.5 h worked out at 1.74%.
